The values that follow come from patent US8962058B2, “High-potency sweetener composition with antioxidant and compositions sweetened therewith” (The Coca-Cola Company, priority 2005, dated 2015).

Assay [1] deals with panel of experts in the sensory evaluation of foods and beverages. The assay can be described thus: Sensory evaluation of sweetness linger by expert panel. On the set-up: key: 0=no sweetness linger; 1=very slight sweetness linger; 2=slight sweetness linger; 3=moderate sweetness linger; 4=moderately high sweetness linger; 5=high sweetness linger. The note with it: for Sweetness Linger rating as defined for the protocol's controls: scale anchors: sucrose, 500 ppm REBA control sample; for Sweetness linger rating: scale 0-5. The class given is in vivo. On the procedure:
In a particular embodiment, a panel of assessors is used to measure the reduction of sweetness linger. Briefly described, a panel of assessors (generally 8 to 12 individuals) is trained to evaluate sweetness perception and measure sweetness at several time points from when the sample is initially taken into the mouth until 3 minutes after it has been expectorated. […] A decrease in score for a time point measured after the sample has cleared the mouth indicates there has been a reduction in sweetness perception.
The panel of assessors may be trained using procedures well known to those of ordinary skill in the art. In a particular embodiment, the panel of assessors may be trained using the Spectrum™ Descriptive Analysis Method (Meilgaard et al, Sensory Evaluation Techniques, 3rd edition, Chapter 11). Desirably, the focus of training should be the recognition of and the measure of the basic tastes; specifically, sweet. In order to ensure accuracy and reproducibility of results, each assessor should repeat the measure of the reduction of sweetness linger about three to about five times per sample, taking at least a five minute break between each repetition and/or sample and rinsing well with water to clear the mouth.
Generally, the method of measuring sweetness comprises taking a 10 mL sample into the mouth, holding the sample in the mouth for 5 seconds and gently swirling the sample in the mouth, rating the sweetness intensity perceived at 5 seconds, expectorating the sample (without swallowing following expectorating the sample), rinsing with one mouthful of water (e.g., vigorously moving water in mouth as if with mouth wash) and expectorating the rinse water, rating the sweetness intensity perceived immediately upon expectorating the rinse water, waiting 45 seconds and, while waiting those 45 seconds, identifying the time of maximum perceived sweetness intensity and rating the sweetness intensity at that time (moving the mouth normally and swallowing as needed), rating the sweetness intensity after another 10 seconds, rating the sweetness intensity after another 60 seconds (cumulative 120 seconds after rinse), and rating the sweetness intensity after still another 60 seconds (cumulative 180 seconds after rinse). Between samples take a 5 minute break, rinsing well with water to clear the mouth.
Sensory evaluation of the samples prepared in Example Set G was carried out under the following protocol, similar to that described hereinabove. In this test protocol, none of the samples were swallowed. […] Immediately upon sensing maximal sweetness, the sample was expectorated, the mouth was rinsed with water and the rate of sweetness decay (“Sweetness Linger”) was measured, where attention was focused on the sweetness 3-4 min after the water rinse. […]

The nature of assay [2]: Sweetness level as sucrose equivalent.

For the molecule `OC[C@H]1O[C@@](CO)(O[C@H]2O[C@H](CO)[C@@H](O)[C@H](O)[C@H]2O)[C@@H](O)[C@@H]1O` [sugar, sucrose], in assay [1], the “Sweetness Linger rating as defined for the protocol's controls” value was 0.
For the molecule rebaudioside A, the sucrose equivalence is listed as 5 % sucrose in assay [2] (180 ppm rebaudioside A in 1:1 diluted commercial beverage) and 8 g sucrose in assay [2] (400 ppm REBA in citric acid/potassium citrate composition). In addition, the Sweetness linger rating came out at 5 in assay [1] (Example Set G: citric acid/potassium citrate composition equivalent to diet lemon-lime beverage (citrate buffer), sweetness 3-4 min after water rinse) and 5 in assay [1] (Example Set H: carbon-treated water, phosphoric acid (75%) to pH 2.4-2.5). In addition, the “Sweetness Linger rating as defined for the protocol's controls” value in assay [1] was 5.
